Data as given in patent US12128049B2, “Dosage regimen of paliperidone palmitate extended-release injectable suspension” (Luye Innomind Pharma Shijiazhuang Co., Ltd., priority 2017, dated 2024).
Where “and” joins values, the source holds several entries; their conditions need not be identical. Equal values may be shown once.

Legend:
[1] = PK in beagle dogs under RLD regimen: IM 4.6 mg/kg day 1, 3.1 mg/kg day 8, 2.3 mg/kg day 36 (Groups I, IV); type: in vivo
Method: (§1) 20 healthy male beagle dogs (average weight about 11 kg) were randomly divided into 5 groups (Groups I-V) with 4 dogs in each group. Each animal was assigned its own number (#1-#20).
(§2) Group I animals (#1-#4) and Group IV animals (#13-#16) were tested under RLD regimen. Group II animals (#5-#8) were tested under Regimen A. Group III animals (#9-#12) and Group V animals (#17-#20) were tested under Regimen B. Table 5 summarizes the respective human dosages (mg of paliperidone) and the equivalent animal dosages (converted to mg/kg) and the dosing intervals under each dosing regimen.
(§3) The animals in each group received intramuscular injections according to the dosing regimen assigned to the group. Blood samples (1 ml/collection) were collected from the forelimb vein of each beagle immediate before administration (at 0 h), and thereafter at time intervals of 6 h (day 1), 24 hr (day 2), day 3, day 5, day 8 (prior to dosing for groups receiving RLD regimen), day 9, day 11, day 13, day 15 (prior to dosing for groups receiving Regimen A), day 17, day 19, day 22, day 24, day 26, day 29 (prior to dosing for groups receiving Regimen A), day 30, day 32, day 34, day 36 (prior to dosing for groups receiving RLD and Regimen A), day 37, day 39, day 42, day 45, day 47, day 50, day 53, day 57, day 64, day 71, day 78, and day 85. The blood samples were placed in heparinized centrifuge tubes and centrifuged for 10 min (3500 rpm). The plasma was separated, collected and stored under −80° C.

[2] = over a broad pH range; cited from earlier work
[3] = PK in beagle dogs under Regimen B: IM 6.9 mg/kg day 1, 3.1 mg/kg day 29 (Groups III, V); type: in vivo
Method: as §1, §2, §3

[4] = PK in beagle dogs under Regimen A: IM 6.2 mg/kg day 1, 1.5 mg/kg day 15, 2.3 mg/kg day 36 (Group II); type: in vivo
Method: as §1, §2, §3

[5] = Regimen B, Group V vs Group IV (FIG. 10B)

## CCCCCCCCCCCCCCCC(=O)OC1CCCn2c1nc(C)c(CCN1CCC(c3noc4cc(F)ccc34)CC1)c2=O (racemic) [paliperidone palmitate, (9RS)-3-[2-[4-(6-Fluoro-1,2-benzisoxazol-3-yl)piperidin-1-yl]ethyl]-2-methyl-4-oxo-6,7,8,9-tetrahydro-4H-pyrido[1,2-a]pyrimadin-9-yl hexadecanoate]
[1]; Group I, individual dogs
  AUC(0-t): 3632.18 µg·days/L and 2010.03 µg·days/L and 3477.47 µg·days/L and 4210.47 µg·days/L
  AUC(0-∞): 3682.95 µg·days/L and 2012.83 µg·days/L and 4010.14 µg·days/L and 4214.96 µg·days/L
[1]; Group I, mean
  AUC(0-t): 3332.54 µg·days/L
  AUC(0-∞): 3480.22 µg·days/L
[1]; Group IV, individual dogs
  AUC(0-t): 2528.69 µg·days/L and 3241.40 µg·days/L and 3191.02 µg·days/L and 1190.27 µg·days/L
  AUC(0-∞): 2546.38 µg·days/L and 3312.15 µg·days/L and 3194.15 µg·days/L and 1311.82 µg·days/L
[1]; Group IV, mean
  AUC(0-t): 2537.85 µg·days/L
  AUC(0-∞): 2591.12 µg·days/L
[2]
  solubility in aqueous media: practically insoluble
[3]; RLD Regimen, Regimen A and Regimen B, Groups I-III (FIG. 10A)
  overall drug exposures (AUC): comparable for all three Regimens
[3]; Regimen B, Group III vs Group I (FIG. 10A)
  Cmax vs RLD Regimen: comparable to that of RLD Regimen
[3]; [5]
  Cmax vs RLD Regimen: comparable to that of RLD Regimen
  time to Cmax vs RLD Regimen: reached Cmax earlier
  trough (day 28) vs RLD Regimen: comparable to the same-day concentration of RLD Regimen and higher than the trough of the RLD Regimen
[4]; individual dogs
  AUC(0-t): 4069.12 µg·days/L and 3146.75 µg·days/L and 3336.44 µg·days/L and 2282.89 µg·days/L
  AUC(0-∞): 4285.47 µg·days/L and 3544.02 µg·days/L and 3446.66 µg·days/L and 2612.80 µg·days/L
[4]; mean
  AUC(0-t): 3208.80 µg·days/L
  AUC(0-∞): 3472.24 µg·days/L
